Test results: PMC3235152, “Heteromeric Anopheline Odorant Receptors Exhibit Distinct Channel Properties” (PLoS ONE, 2011)

Experiments:
AgOrco + AgOr10 [1] = target: T1, AgOrco + AgOr10 (Anopheles gambiae, UniProt B5U0U7+Q7QCC7); assay: Ca++ imaging concentration-response in HEK cells; format: cell-based
T1 construct: gene Orco; heteromer of unknown stoichiometry; VUAA1 acts on Orco, odorant on Or10, ruthenium red at the pore
T1 sequence (Q7QCC7 1-478): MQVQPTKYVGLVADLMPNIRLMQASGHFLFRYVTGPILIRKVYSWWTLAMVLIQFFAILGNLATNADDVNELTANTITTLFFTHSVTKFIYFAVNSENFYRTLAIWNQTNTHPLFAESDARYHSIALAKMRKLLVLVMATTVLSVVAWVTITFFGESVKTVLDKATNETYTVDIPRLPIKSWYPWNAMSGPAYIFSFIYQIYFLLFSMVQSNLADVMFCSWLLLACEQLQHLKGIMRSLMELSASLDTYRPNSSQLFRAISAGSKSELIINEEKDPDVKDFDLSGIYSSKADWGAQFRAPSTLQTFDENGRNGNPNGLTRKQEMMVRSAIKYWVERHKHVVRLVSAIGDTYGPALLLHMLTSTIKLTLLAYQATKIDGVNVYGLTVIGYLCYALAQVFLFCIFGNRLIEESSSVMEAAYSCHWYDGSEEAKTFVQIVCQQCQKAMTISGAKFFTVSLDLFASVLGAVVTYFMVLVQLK
T1 sequence (B5U0U7 1-375): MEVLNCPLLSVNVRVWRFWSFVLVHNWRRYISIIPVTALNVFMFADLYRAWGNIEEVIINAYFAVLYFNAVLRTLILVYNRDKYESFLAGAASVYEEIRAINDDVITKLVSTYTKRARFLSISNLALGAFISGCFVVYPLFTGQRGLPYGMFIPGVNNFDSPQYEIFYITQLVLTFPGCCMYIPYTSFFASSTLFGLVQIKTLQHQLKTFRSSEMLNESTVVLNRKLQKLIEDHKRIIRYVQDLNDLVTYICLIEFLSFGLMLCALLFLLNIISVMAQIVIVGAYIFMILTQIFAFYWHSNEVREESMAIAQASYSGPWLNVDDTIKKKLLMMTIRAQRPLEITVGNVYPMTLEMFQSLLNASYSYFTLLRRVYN

AgOrco + AgOr65 = test system: T2, AgOrco + AgOr65; assay: Ca++ imaging concentration-response in HEK cells; format: cell-based, Anopheles gambiae; settings: Orco agonist; AgOrco homomers may coexist
T2 construct: gene Orco; heteromer of unknown stoichiometry; VUAA1 acts on Orco, odorant on Or65, ruthenium red at the pore

AgOrco + AgOr28 = test system: T3, AgOrco + AgOr28; assay: Ca++ imaging concentration-response in HEK cells; format: cell-based, Anopheles gambiae; settings: Orco agonist; AgOrco homomers may coexist
T3 construct: gene Orco; heteromer of unknown stoichiometry; VUAA1 acts on Orco, odorant on Or28, ruthenium red at the pore

AgOrco + AgOr8 = target: T4, AgOrco + AgOr8 (Anopheles gambiae, UniProt Q7PUT5+Q7QCC7); assay: Ca++ imaging concentration-response in HEK cells; format: cell-based
T4 construct: gene Orco; heteromer of unknown stoichiometry; VUAA1 acts on Orco, odorant on Or8, ruthenium red at the pore
T4 sequence (Q7QCC7 1-478): T1 sequence (Q7QCC7 1-478)
T4 sequence (Q7PUT5 1-399): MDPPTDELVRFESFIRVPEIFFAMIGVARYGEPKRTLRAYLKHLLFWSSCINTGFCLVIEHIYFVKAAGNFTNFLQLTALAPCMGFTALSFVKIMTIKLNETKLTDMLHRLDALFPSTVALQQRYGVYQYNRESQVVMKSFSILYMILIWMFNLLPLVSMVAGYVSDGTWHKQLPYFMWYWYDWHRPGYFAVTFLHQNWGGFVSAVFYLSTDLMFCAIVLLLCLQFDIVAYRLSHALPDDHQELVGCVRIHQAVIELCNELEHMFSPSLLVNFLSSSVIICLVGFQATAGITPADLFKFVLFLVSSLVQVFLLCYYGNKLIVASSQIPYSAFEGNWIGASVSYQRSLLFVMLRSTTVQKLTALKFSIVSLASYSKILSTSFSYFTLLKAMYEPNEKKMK

AgOrco = target: T5, AgOrco (Anopheles gambiae, UniProt Q7QCC7); assay: Ca++ imaging concentration-response in HEK cells; format: cell-based
T5 construct: gene Orco; Orco homomer, stoichiometry unknown
T5 sequence (Q7QCC7 1-478): T1 sequence (Q7QCC7 1-478)

AgOrco + AgOr10 [2] = target: T1, AgOrco + AgOr10; assay: whole-cell patch clamp, block of agonist-induced current; format: cell-based; settings: 100 µM benzaldehyde as agonist; -60 mV; pH 7.35; 20–22°C; pore blocker, noncompetitive with VUAA1

In the case of CCc1ccc(NC(=O)CSc2nnc(-c3cccnc3)n2CC)cc1 [VUAA1, N-(4-ethylphenyl)-2-((4-ethyl-5-(3-pyridinyl)-4H-1,2,4-triazol-3-yl)thio)acetamide], the EC50 (AgOrco + AgOr10 [1]) is reported as 12.3 µM, the EC50 (AgOrco + AgOr65) is reported as −4.42±0.02 logM and the EC50 (AgOrco + AgOr28) is reported as −4.47±0.02 logM. It also gave an EC50 (AgOrco + AgOr8) of 13.2 µM and an EC50 (AgOrco) of 49 µM.
For N.N.N.N.N.N.N.N.N.N.N.N.N.N.[Cl-].[Cl-].[Cl-].[Cl-].[Cl-].[Cl-].[O-2].[O-2].[Ru+3].[Ru+3].[Ru+4] [ruthenium red], the “% current reduction at 100 μM” value (AgOrco + AgOr10 [2]) was 78.5±1.4%.
